Experimental data reported in ChEMBL document CHEMBL3352297, “Structure based virtual screening of MDPI database: discovery of structurally diverse and novel DPP-IV inhibitors” (Bioorg Med Chem Lett, 2014).
Calls of active or inactive are those of the source. No cut-off for these calls is given here.

How the values were obtained:
Dipeptidyl peptidase 4 = Dipeptidyl peptidase 4 (Homo sapiens, UniProt P27487); assay: Inhibition of human DPP-4 using H-Gly-Pro-para-Nitroanilide as substrate incubated for 20 mins prior to substrate addition measured after 30 mins by spectrophotometry
Chain of Dipeptidyl peptidase 4 (P27487 whole entry): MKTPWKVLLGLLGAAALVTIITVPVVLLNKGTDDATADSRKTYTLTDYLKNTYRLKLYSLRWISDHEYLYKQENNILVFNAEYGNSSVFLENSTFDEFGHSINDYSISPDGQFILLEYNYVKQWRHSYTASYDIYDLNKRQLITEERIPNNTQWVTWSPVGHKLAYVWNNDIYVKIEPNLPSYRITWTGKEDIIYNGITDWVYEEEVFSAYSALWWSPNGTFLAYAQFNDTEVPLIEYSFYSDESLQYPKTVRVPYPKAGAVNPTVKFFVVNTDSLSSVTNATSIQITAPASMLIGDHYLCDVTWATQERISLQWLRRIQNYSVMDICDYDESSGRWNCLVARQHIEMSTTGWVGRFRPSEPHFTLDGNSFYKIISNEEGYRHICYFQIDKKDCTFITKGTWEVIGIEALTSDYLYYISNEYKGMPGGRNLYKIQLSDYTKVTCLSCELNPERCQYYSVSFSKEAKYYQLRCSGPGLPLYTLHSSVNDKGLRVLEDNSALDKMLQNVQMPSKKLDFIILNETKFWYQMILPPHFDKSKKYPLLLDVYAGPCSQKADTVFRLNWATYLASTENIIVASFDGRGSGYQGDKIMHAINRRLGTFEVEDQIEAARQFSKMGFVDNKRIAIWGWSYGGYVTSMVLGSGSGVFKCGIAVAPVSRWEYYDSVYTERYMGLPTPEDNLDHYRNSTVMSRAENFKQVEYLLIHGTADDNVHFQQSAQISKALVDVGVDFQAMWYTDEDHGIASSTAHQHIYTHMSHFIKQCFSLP

Rattus norvegicus = assay: Suppression of blood glucose level in Wistar rat at 30 mg/kg, po measured 30 to 120 mins post dextrose challenge by oral glucose tolerance test; assay type: functional, organism-based; set-up: dose 30 mg/kg

| Compound | IC50 (Dipeptidyl peptidase 4) | IC50 (Dipeptidyl peptidase 4; read-out: IC50) [nM] | Activity (Rattus norvegicus) |
| --- | --- | --- | --- |
| CN(C)c1ccc(C(N)CC(=O)c2c(O)c3ccccc3n(C)c2=O)cc1 (stereo not drawn) | ND(Insoluble) |  |  |
| CCn1c(=O)c(C(C)(NN)Nc2ccc(C)cc2)c(O)c2ccccc21 (stereo not drawn) |  | 2950 | Active |
| Cn1c(=O)c(C(C)(NN)Nc2ccccc2)c(O)c2ccccc21 (stereo not drawn) |  | 730 | Active |
| Cc1ccc(=N)n(Cc2cccc(F)c2)c1 |  | 34600 |  |
| 2,2-diphenylethanaminium tetrachloroaurate |  |  | Active |
| N=CC(C(=O)c1ccccc1)c1ccccc1 (stereo not drawn) |  | > 100000 |  |
